This is an account of results in PubChem BioAssay (NCI).

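Where inhibition never reached the appropriate level, the endpoint shown equals the highest concentration tested. Otherwise, values were interpolated linearly from a five-concentration, 48-hour dose response in 96-well plates. GI50: concentration for 50% inhibition of growth. TGI marks complete inhibition of growth.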

Holding throughout (test): NCI-60 cell line screen, 48 h
Test [1] concerns MALME-3M melanoma.
In test [2] the test system is CAKI-1 renal.
Test [3] concerns NCI-H522 lung.
Test [4] deals with HOP-92 NSCLC.
In test [5] the test system is MCF7 breast.
Test [6] deals with OVCAR-4 ovarian.
The test system of test [7] is HS 578T breast.
Test [8] concerns UO-31 renal.
Test [9] has as its system HL-60(TB) leukemia.
The subject of test [10] is SR leukemia.

As to `Cc1ccc(N=C/C=C(\Nc2ccc(C)cc2)c2ccc3ccccc3c2)cc1`, the TGI is 14 µM in [1]; 12.7 µM in test [2]; 11 µM in test [3]; 27.6 µM in test [4]; 16.5 µM in [5]; 11.2 µM in [6]. The TGI in [7] turned out to be 36.8 µM; in test [8] it was 13.1 µM; in test [9], 2.02 µM; in test [10] it was 1.44 µM.
As for `Cc1nc(C)c(N2CCN(CN)CC2)c(=O)[nH]1`, the TGI in [1], in test [2], in test [3], in test [4], in test [5] and in test [6] was greater than 100 µM each time. Moreover, the TGI in [7], in [8], in test [9] and in [10] was greater than 100 µM throughout.
Turning to `Oc1cccc2c(Br)ccnc12`, the TGI in test [1] is 21.2 µM; in test [2] it was greater than 100 µM; in [3], 17.1 µM; in [4] it was 23 µM; in test [5], greater than 31.6 µM; in test [6], 10.2 µM. Besides, the TGI amounted to 50.5 µM in test [7], 21.6 µM in test [8], 0.983 µM in [9] and 4.31 µM in [10].
Take `O=c1cc(-c2ccccc2)oc2c1ccc1[nH]c3ccccc3c(=O)c12`: the TGI in test [1], in test [2], in test [3], in test [4], in test [5] and in [6] was greater than 100 µM each time. Moreover, the TGI in test [7], in [8], in [9] and in test [10] was greater than 100 µM in each case.
Regarding `COC(=O)[C@@H](NS(=O)(=O)CC12CCC(CC1)C2(C)C)C(C)(C)C`, the TGI in test [1], in [2], in test [3], in test [4], in [5] and in test [6] was greater than 100 µM in each case. Also, the TGI in test [7], in [8], in test [9] and in [10] was greater than 100 µM throughout.
With `COC(=O)c1c2c(cc3c1CC1(Cc4cc5c(c(C)c4C1)CCC5)C3)CCC2` (stereo not given), the TGI in [1], in [2], in test [3], in test [4], in test [5] and in test [6] was greater than 100 µM in each case. Besides, the TGI in test [7], in test [8], in test [9] and in [10] was greater than 100 µM in each case.
As to `CCCC1=C(OC)C(=O)c2c(C)cc(Cl)nc2C1=O`, the TGI in test [1] was determined as 9.71 µM; in test [2], 21.7 µM; in [3], 8.06 µM; in [4], 11.3 µM; in [5], 6.17 µM; in test [6], 19.5 µM. Also, the TGI was greater than 47 µM in [7], 26.5 µM in [8], 3.65 µM in test [9] and 5.11 µM in test [10].
Consider `C=C(CN(CC)CC)C1(c2ccccc2)CC2(CCCC2)C(=O)O1` (stereo not given), for which the TGI in [1] was greater than 100 µM; in test [2] it was greater than 100 µM; in test [3], greater than 100 µM; in test [4] it was 83.3 µM; in test [5], greater than 100 µM; in [6], greater than 100 µM. For the same molecule, the TGI in test [7], in test [8], in test [9] and in test [10] was greater than 100 µM in each case.
As for `COc1ccc(/C=c2\[nH]c3nc(=O)c(N4CCCCC4)c(N)n3c2=O)cc1`, the TGI in [1], in test [2], in test [3], in test [4], in test [5] and in [6] was greater than 100 µM throughout. Further, the TGI in test [7], in [8], in [9] and in test [10] was greater than 100 µM in each case.
In the case of `Cc1cc(C)nc(NS(=O)(=O)c2ccc(NNc3c4ccccc4nc4c(C(=O)Nc5ccc(S(=O)(=O)Nc6cc(C)on6)cc5)cccc34)cc2)n1`, the TGI in [1] was greater than 100 µM; in test [2], greater than 100 µM; in test [3] it was 82.1 µM; in test [4], greater than 100 µM; in [5], greater than 100 µM; in [6], greater than 100 µM. Besides, the TGI in test [7] is greater than 100 µM; in test [8], greater than 100 µM; in test [9], 80.6 µM; in test [10] it was 72.8 µM.
Consider `COc1cc(S(=O)(=O)Nc2ccc(-c3csc(N4C(=O)C(Cl)C4c4ccccc4O)n3)cc2)ccc1Cl` (stereo not given), for which the TGI is greater than 100 µM in test [1]; greater than 100 µM in [2]; 3.48 µM in [3]; 91.9 µM in test [4]; 54.2 µM in test [5]; 70 µM in test [6]. Further, the TGI in test [7] is greater than 100 µM; in [8] it was greater than 100 µM; in [9] it was 49.7 µM; in test [10] it was 52 µM.
For `Clc1ccc(-c2nn3c(COc4cccc(OCc5nnc6sc(-c7ccc(Cl)cc7)nn56)c4)nnc3s2)cc1`, the TGI in test [1] was 50.4 µM; in test [2], 48.8 µM; in [3], 55.3 µM; in test [4] it was greater than 100 µM; in test [5] it was 27.2 µM; in test [6] it was 27.6 µM. The TGI in [7] is greater than 100 µM; in [8] it was 39.6 µM; in test [9] it was 53.6 µM; in [10], 88.9 µM.
`O=c1[nH]n(CCc2ccccc2CCl)c2ccc([N+](=O)[O-])cc12`: the TGI is greater than 100 µM in [1]; greater than 100 µM in test [2]; greater than 100 µM in test [3]; greater than 100 µM in [4]; greater than 100 µM in test [5]; 92 µM in test [6]. For the same molecule, the TGI in [7], in test [8], in test [9] and in test [10] was greater than 100 µM each time.
As to `COc1cccc(NC(=O)CC(=O)n2nc(-c3ccccc3)c(N=Nc3ccc(Cl)cc3)c2-c2ccccc2)c1`, the TGI is 78.8 µM in [1]; greater than 100 µM in test [2]; 59.8 µM in [3]; greater than 75 µM in test [4]; 45.3 µM in [5]; greater than 100 µM in test [6]. The TGI in [7] was greater than 82.3 µM; in test [8], 30.8 µM; in [9] it was 56.1 µM; in test [10] it was greater than 73.2 µM.
On to `CSc1nnc(SCc2nn3c(=O)cc(C)nc3s2)s1`, for which the TGI in test [1], in test [2], in test [3], in test [4], in test [5] and in [6] was greater than 100 µM throughout. Further, the TGI in test [7], in test [8], in [9] and in test [10] was greater than 100 µM in each case.
For `NC1CCCCC1NCCNC1CCCCC1N` (stereo not given), the TGI in test [1], in test [2], in [3], in test [4], in test [5] and in [6] was greater than 100 µM throughout. Besides, the TGI in test [7], in [8], in test [9] and in [10] was greater than 100 µM each time.
Turning to `O=C(Nc1ccc(-n2cc(-c3ccncc3)c(-c3ccc(O)c(Cl)c3)n2)cc1)c1ccc(Cl)c(C(F)(F)F)c1`, the GI50 in [1] is 1.45 µM; in test [2], 2.05 µM; in test [3], 1 µM; in test [4], 1.07 µM; in [5] it was 2.4 µM; in test [6] it was 2.52 µM. The GI50 in [7] was 0.702 µM; in [8], 2.65 µM; in test [9] it was 1.83 µM; in test [10], 1.68 µM. The TGI in test [1] is 6.71 µM; in test [2], 14.7 µM; in test [3], 4.88 µM; in test [4], 4.55 µM; in test [5] it was greater than 50 µM; in test [6] it was greater than 50 µM. The TGI in test [7] amounted to 3.1 µM; in test [8] it was 28.3 µM; in test [9], 12.5 µM; in test [10], 13 µM.
With `COc1ccc(-n2c(N)c(C#N)c(C#N)c2-c2ccco2)cc1`, the TGI in test [1], in test [2], in test [3], in [4], in test [5] and in test [6] was greater than 100 µM throughout. The TGI in [7], in [8], in test [9] and in [10] was greater than 100 µM throughout.
Take `O=C(O)CSC1=NNC2(C(=O)N1)c1ccccc1-c1ccccc12`: the TGI in test [1], in [2], in test [3], in test [4], in test [5] and in test [6] was greater than 10 µM throughout. Besides, the TGI in [7], in test [8], in [9] and in test [10] was greater than 10 µM in each case.
`O=c1[nH]cc(N=Cc2cc(Cl)ccc2O)c(=O)[nH]1`: the TGI in test [1] is 73.8 µM; in test [2] it was greater than 100 µM; in test [3], greater than 100 µM; in [4], 89.8 µM; in test [5], greater than 100 µM; in test [6], 12.3 µM. Moreover, the TGI in [7] is greater than 100 µM; in test [8], greater than 100 µM; in test [9], 52.6 µM; in [10], 24.8 µM.
